Columns and labels:
[1] = Cytotoxicity against human NCI-H460 cells incubated for 72 hrs by CCK-8 assay
in vitro = conditions: human, NCI-H460 cells
Description: Selectivity index, ratio of CC50 for cytotoxicity against human NCI-H460 cells to EC50 for antiviral activity against HCoV-OC43 VR-1558 infected in human NCI-H460 cells

Human coronavirus OC43 = assay: microbe, parasite or virus in culture; conditions: Betacoronavirus 1, VR-1558, NCI-H460, 72 h
Description: Antiviral activity against HCoV-OC43 VR-1558 infected in human NCI-H460 cells assessed as inhibition of viral growth incubated for 72 hrs by CCK-8 assay

[2] = Cytotoxicity against human Huh7.5 cells
[3] = Cytotoxicity against human H9 cells

SMILES	CC50 at 72 h [1] [µM]	selectivity ratio (in vitro)	EC50 (Human coronavirus OC43) [µM]	CC50 [2] [µM]	CC50 [3] [µM]
CN1CCN(Cc2ccc(NC(=O)c3ccc(OCCCCl)c(C(F)(F)F)c3)cc2C(F)(F)F)CC1	6.2	2	2.94	–	–
CN1CCN(Cc2ccc(NC(=O)c3ccc(OCCCCl)c([N+](=O)[O-])c3)cc2C(F)(F)F)CC1	15	6.1	2.47	–	–
CN1CCN(Cc2ccc(NC(=O)c3ccc(OCCCCl)c(F)c3)cc2C(F)(F)F)CC1	13.4	3	5.34	–	–
CC(C)Oc1ccc(C(=O)Nc2ccc(CN3CCN(C)CC3)c(C(F)(F)F)c2)cc1[N+](=O)[O-]	19.2	5.4	3.54	–	–
CN(C)C1CN(Cc2ccc(NC(=O)c3ccc(OCCCl)c([N+](=O)[O-])c3)cc2C(F)(F)F)C1	19.2	6.5	2.97	6.47	–
CN(C)C1CN(Cc2ccc(NC(=O)c3ccc(OCCCCl)c([N+](=O)[O-])c3)cc2C(F)(F)F)C1	49.8	6	8.64	–	–
CN1CCN(Cc2ccc(NC(=O)c3ccc(OCCCCl)c([N+](=O)[O-])c3)cn2)CC1	43.7	2.3	19.2	–	–
CCC(=O)Nc1cc(C(=O)Nc2ccc(CN3CCN(C)CC3)c(C(F)(F)F)c2)ccc1OCCCCl	27.1	4.73	5.74	–	–
CN1CCN(Cc2ccc(NC(=O)c3ccc(OCCCl)c([N+](=O)[O-])c3)cc2C(F)(F)F)CC1	13	3.5	3.73	–	–
O=C(Nc1ccc(CN2CC(C(=O)O)C2)c(C(F)(F)F)c1)c1ccc(OCCCCl)c([N+](=O)[O-])c1	> 200	–	> 66.7	–	–
CN(C)C1CCN(Cc2ccc(NC(=O)c3ccc(OCCCCl)c([N+](=O)[O-])c3)cc2C(F)(F)F)C1 (stereo unspecified)	28.2	2.9	9.76	–	–
CC1CN(Cc2ccc(NC(=O)c3ccc(OCCCCl)c([N+](=O)[O-])c3)cc2C(F)(F)F)CC(C)O1 (stereo unspecified)	4.69	2	2.49	–	–
CN(C)C1CCN(Cc2ccc(NC(=O)c3ccc(OCCCCl)c([N+](=O)[O-])c3)cc2C(F)(F)F)CC1	18.5	4.7	3.93	–	–
CN1CCN(Cc2ccc(NC(=O)c3ccc(OCCCCl)c([N+](=O)[O-])c3)cc2C#N)CC1	136	11.2	12.1	–	–
CN1CCN(Cc2ccc(NC(=O)c3ccc(OCCCCl)c(S(N)(=O)=O)c3)cc2C(F)(F)F)CC1	40.4	9.8	4.11	–	–
COc1ccc(C(=O)Oc2cc(OC)c(OC)c(OC)c2)cc1NC(=O)C(C)Br (stereo unspecified)	–	–	–	–	3.64
CN1CCN(CCCNC(=O)C2CN(Cc3ccc(NC(=O)c4ccc(OCCCCl)c([N+](=O)[O-])c4)cc3C(F)(F)F)C2)CC1	59.1	3.2	18.6	–	–
CN(C)C1CCN(Cc2ccc(NC(=O)c3ccc(OCC4CC4)c([N+](=O)[O-])c3)cc2C(F)(F)F)CC1	14.2	11	1.24	–	–
CN(C)C1CC(Oc2ccc(NC(=O)c3ccc(O)c([N+](=O)[O-])c3)cc2C(F)(F)F)C1 (stereo unspecified)	186	7	27.2	–	–
CN1CCN(Cc2ccc(NC(=O)c3ccc(OCCF)c([N+](=O)[O-])c3)cc2C(F)(F)F)CC1	24.5	9	2.64	–	–
CN(C)C1CC(Oc2ccc(NC(=O)c3ccc(OCCC(F)(F)F)c([N+](=O)[O-])c3)cc2C(F)(F)F)C1 (stereo unspecified)	31.3	16	2.01	–	–
COc1ccc(C(=O)Nc2ccc(OC3CC(N(C)C)C3)c(C(F)(F)F)c2)cc1[N+](=O)[O-] (stereo unspecified)	139	7	19.5	–	–
CN1CCN(Cc2ccc(NC(=O)c3ccc(OCCCCl)c(NS(C)(=O)=O)c3)cc2C(F)(F)F)CC1	38.5	3	12.8	–	–
CN(C)C1CN(Cc2ccc(NC(=O)c3ccc(OCc4cc(C(F)(F)F)cc(C(F)(F)F)c4)c([N+](=O)[O-])c3)cc2C(F)(F)F)C1	5.07	< 1.7	> 3.13	–	–
CN1CCN(Cc2ccc(NC(=O)c3ccc(F)c(C(F)(F)F)c3)cc2C(F)(F)F)CC1	14.5	3	4.15	–	–
CN(C)C1CN(Cc2ccc(NC(=O)c3ccc(OCC(F)F)c([N+](=O)[O-])c3)cc2C(F)(F)F)C1	34.1	8	4.51	–	–
